According to patent publication US4434159A, “Pharmaceutical composition for intrarectal administration, and suppository prepared therefrom” (Teijin Limited, priority 1980, dated 1984):

Tests used:
[1] = system: mucous membrane of the eyes (cornea, iris, conjunctiva); experiment: Draize eye irritation test of absorption aids in rabbits
Protocol: Nothing was applied to the other eye. Thus, irritation of the absorption aid to the mucous membrane of the eyes were examined, and scores were calculated in accordance with the Draize's eye irritation evaluating method [Association of Foods, Drugs and Cosmetics" (1957)].

serum calcium level = experiment: Effect of the amount of the absorption aid on the decrease of serum calcium level (calcitonin suppositories, rats); assay type: in vivo; conditions: intrarectal, SD male rats, one hour
Protocol: (a) About 14 g of each of the absorption aids shown in Table 1 was added to 186 g of cacao butter, and they were well mixed by a grinder. Salmon caltintonin or [Asu^1,7 ]-eel calcitonin was added gradually and mixed to form a homogeneous composition. The composition was slightly heated to make it flowable, and about 80 mg of it was cast into a suppository container made for rats, and allowed to solidify by cooling to obtain a rat suppository having a diameter of about 3 mm and a length of about 6 mm. The suppository contained 0.7 MRC units of calcitonin.
The suppository was administered to the rectum of each of […] male rats (body weight about 200 g) and the concentration of calcium in the serum was measured 1, 2, 3, and 5 hours later to examine the absorbabillity of calcitonin from the rectum. The calcium level in the serum was measured by using a calcium level measuring kit of Yatoron Co., and five rats were used for each blood withdrawal. The results are shown in Table 1 as the decrease (%) of the serum calcium level from that before administration of the calcitonin-containing suppository.
(b) Suppositories containing 0.7 MRC unit of [Aus^1.7 ]-eel calcitonin per 80 mg were prepared in the same way as in (a) above by including each of the absorption aids shown in Table 2 in the amounts indicated. Each of the suppositories was intrarectally administered to SD male rats in the same way as in (a) above, and the decrease (%) of the serum calcium level was measured one hour after the administration.

[2] = 2.4 w/v % soln, 1 hours after application
[3] = 2.4 w/v % soln, 3 hours after application
[4] = 2.4 w/v % soln, 6 hours after application
[5] = 2.4 w/v % soln, 24 hours after application
[6] = 2.4 w/v % soln, 48 hours after application
[7] = 2.4 w/v % soln, 72 hours after application
[8] = 2.4 w/v % soln, 96 hours after application
[9] = 2.4 w/v % soln, 168 hours after application
[10] = aqueous solution applied dropwise to rabbit eye, Draize evaluation
[11] = absorption aid 0.8% of suppository with 0.7 MRC unit [Aus^1.7]-eel calcitonin per 80 mg
[12] = absorption aid 2.4% of suppository with 0.7 MRC unit [Aus^1.7]-eel calcitonin per 80 mg
[13] = 0.1 w/v % soln, 1 hours after application
[14] = 0.1 w/v % soln, 3 hours after application
[15] = 0.1 w/v % soln, 6 hours after application
[16] = 0.1 w/v % soln, 24 hours after application
[17] = 0.1 w/v % soln, 48 hours after application
[18] = 0.1 w/v % soln, 72 hours after application
[19] = 0.1 w/v % soln, 96 hours after application
[20] = 0.1 w/v % soln, 168 hours after application

With `N[C@@H](CCC(=O)O)C(=O)O` [L-Glutamic acid] the “Primary irritation scores on the eyes: Conjunctiva” value [1, 2] was 3.3, the “Primary irritation scores on the eyes: Cornea” value [1, 2] was 0 and the “Primary irritation scores on the eyes: Iris” value [1, 2] was 0. The “Primary irritation scores on the eyes: Total” value [1, 2] was 3.3, the “Primary irritation scores on the eyes: Conjunctiva” value [1, 3] was 2.0 and the “Primary irritation scores on the eyes: Cornea” value [1, 3] was 0. The “Primary irritation scores on the eyes: Iris” value [1, 3] was 0, the “Primary irritation scores on the eyes: Total” value [1, 3] was 2.0 and the “Primary irritation scores on the eyes: Conjunctiva” value [1, 4] was 2.0. For the same compound, the “Primary irritation scores on the eyes: Cornea” value [1, 4] was 0, the “Primary irritation scores on the eyes: Iris” value [1, 4] was 0 and the “Primary irritation scores on the eyes: Total” value [1, 4] was 2.0. The “Primary irritation scores on the eyes: Conjunctiva” value [1, 5] was 0, the “Primary irritation scores on the eyes: Cornea” value [1, 5] was 0 and the “Primary irritation scores on the eyes: Iris” value [1, 5] was 0. The “Primary irritation scores on the eyes: Total” value [1, 5] was 0, the “Primary irritation scores on the eyes: Conjunctiva” value [1, 6] was 0 and the “Primary irritation scores on the eyes: Cornea” value [1, 6] was 0. The “Primary irritation scores on the eyes: Iris” value [1, 6] was 0, the “Primary irritation scores on the eyes: Total” value [1, 6] was 0 and the “Primary irritation scores on the eyes: Conjunctiva” value [1, 7] was 0. For the same compound, the “Primary irritation scores on the eyes: Cornea” value [1, 7] was 0, the “Primary irritation scores on the eyes: Iris” value [1, 7] was 0 and the “Primary irritation scores on the eyes: Total” value [1, 7] was 0. For the same compound, the “Primary irritation scores on the eyes: Conjunctiva” value [1, 8] was 0, the “Primary irritation scores on the eyes: Cornea” value [1, 8] was 0 and the “Primary irritation scores on the eyes: Iris” value [1, 8] was 0. For the same compound, the “Primary irritation scores on the eyes: Total” value [1, 8] was 0, the “Primary irritation scores on the eyes: Conjunctiva” value [1, 9] was 0 and the “Primary irritation scores on the eyes: Cornea” value [1, 9] was 0. For the same compound, the “Primary irritation scores on the eyes: Iris” value [1, 9] was 0, the “Primary irritation scores on the eyes: Total” value [1, 9] was 0 and the “irritation to the mucous membrane of the eyes (in words)” value (shortened to “irritation to the mucous membrane”) [1, 10] was “almost no irritation”. The “Decrease of the serum calcium level (%)” value (serum calcium level; [11]) was 11.5%, the “Decrease of the serum calcium level (%)” value (serum calcium level; [12]) was 17.2% and the “Decrease of the serum calcium level (%)” value (serum calcium level; absorption aid 15.0% of suppository with 0.7 MRC unit [Aus^1.7]-eel calcitonin per 80 mg) was 28.1%.
With `CC(=O)Oc1ccccc1C(=O)O` [Acetylsalicylic acid, reference compound] the “Primary irritation scores on the eyes: Cornea” value ([1]; rabbit, in vivo) was 0, the “Primary irritation scores on the eyes: Iris” value ([1]; rabbit, in vivo) was 0 and the “irritation to the mucous membrane” value ([1]; rabbit, in vivo) was “almost no irritation”.
`CCCCCCCCCCCCOS(=O)(=O)[O-].[Na+]` [Sodium Laurylsulfate, reference compound] was tested, and the “Primary irritation scores on the eyes: Conjunctiva” value [1, 13] was 4.0, the “Primary irritation scores on the eyes: Cornea” value [1, 13] was 0 and the “Primary irritation scores on the eyes: Iris” value [1, 13] was 0. The “Primary irritation scores on the eyes: Total” value [1, 13] was 4.0, the “Primary irritation scores on the eyes: Conjunctiva” value [1, 14] was 4.0 and the “Primary irritation scores on the eyes: Cornea” value [1, 14] was 0. For the same compound, the “Primary irritation scores on the eyes: Iris” value [1, 14] was 0, the “Primary irritation scores on the eyes: Total” value [1, 14] was 4.0 and the “Primary irritation scores on the eyes: Conjunctiva” value [1, 15] was 0. For the same compound, the “Primary irritation scores on the eyes: Cornea” value [1, 15] was 0, the “Primary irritation scores on the eyes: Iris” value [1, 15] was 0 and the “Primary irritation scores on the eyes: Total” value [1, 15] was 0. For the same compound, the “Primary irritation scores on the eyes: Conjunctiva” value [1, 16] was 0, the “Primary irritation scores on the eyes: Cornea” value [1, 16] was 0 and the “Primary irritation scores on the eyes: Iris” value [1, 16] was 0. The “Primary irritation scores on the eyes: Total” value [1, 16] was 0, the “Primary irritation scores on the eyes: Conjunctiva” value [1, 17] was 0 and the “Primary irritation scores on the eyes: Cornea” value [1, 17] was 0. For the same compound, the “Primary irritation scores on the eyes: Iris” value [1, 17] was 0, the “Primary irritation scores on the eyes: Total” value [1, 17] was 0 and the “Primary irritation scores on the eyes: Conjunctiva” value [1, 18] was 0. The “Primary irritation scores on the eyes: Cornea” value [1, 18] was 0, the “Primary irritation scores on the eyes: Iris” value [1, 18] was 0 and the “Primary irritation scores on the eyes: Total” value [1, 18] was 0. The “Primary irritation scores on the eyes: Conjunctiva” value [1, 19] was 0, the “Primary irritation scores on the eyes: Cornea” value [1, 19] was 0 and the “Primary irritation scores on the eyes: Iris” value [1, 19] was 0. For the same compound, the “Primary irritation scores on the eyes: Total” value [1, 19] was 0, the “Primary irritation scores on the eyes: Conjunctiva” value [1, 20] was 0 and the “Primary irritation scores on the eyes: Cornea” value [1, 20] was 0. The “Primary irritation scores on the eyes: Iris” value [1, 20] was 0, the “Primary irritation scores on the eyes: Total” value [1, 20] was 0 and the “Primary irritation scores on the eyes: Conjunctiva” value [1, 2] was 13.3. For the same compound, the “Primary irritation scores on the eyes: Cornea” value [1, 2] was 0, the “Primary irritation scores on the eyes: Iris” value [1, 2] was 5.0 and the “Primary irritation scores on the eyes: Total” value [1, 2] was 18.3. For the same compound, the “Primary irritation scores on the eyes: Conjunctiva” value [1, 3] was 12.7, the “Primary irritation scores on the eyes: Cornea” value [1, 3] was 0 and the “Primary irritation scores on the eyes: Iris” value [1, 3] was 0. The “Primary irritation scores on the eyes: Total” value [1, 3] was 12.7, the “Primary irritation scores on the eyes: Conjunctiva” value [1, 4] was 11.3 and the “Primary irritation scores on the eyes: Cornea” value [1, 4] was 0. For the same compound, the “Primary irritation scores on the eyes: Iris” value [1, 4] was 0, the “Primary irritation scores on the eyes: Total” value [1, 4] was 11.3 and the “Primary irritation scores on the eyes: Conjunctiva” value [1, 5] was 8.0. For the same compound, the “Primary irritation scores on the eyes: Cornea” value [1, 5] was 0, the “Primary irritation scores on the eyes: Iris” value [1, 5] was 0 and the “Primary irritation scores on the eyes: Total” value [1, 5] was 8.0. The “Primary irritation scores on the eyes: Conjunctiva” value [1, 6] was 4.0, the “Primary irritation scores on the eyes: Cornea” value [1, 6] was 0 and the “Primary irritation scores on the eyes: Iris” value [1, 6] was 0. For the same compound, the “Primary irritation scores on the eyes: Total” value [1, 6] was 4.0, the “Primary irritation scores on the eyes: Conjunctiva” value [1, 7] was 2.7 and the “Primary irritation scores on the eyes: Cornea” value [1, 7] was 0. The “Primary irritation scores on the eyes: Iris” value [1, 7] was 0, the “Primary irritation scores on the eyes: Total” value [1, 7] was 2.7 and the “Primary irritation scores on the eyes: Conjunctiva” value [1, 8] was 2.0. For the same compound, the “Primary irritation scores on the eyes: Cornea” value [1, 8] was 0, the “Primary irritation scores on the eyes: Iris” value [1, 8] was 0 and the “Primary irritation scores on the eyes: Total” value [1, 8] was 2.0. For the same compound, the “Primary irritation scores on the eyes: Conjunctiva” value [1, 9] was 0.7, the “Primary irritation scores on the eyes: Cornea” value [1, 9] was 0 and the “Primary irritation scores on the eyes: Iris” value [1, 9] was 0. The “Primary irritation scores on the eyes: Total” value [1, 9] was 0.7 and the “irritation to the mucous membrane” value [1, 10] was “fairly strong irritation”.
In the case of `O=C([O-])c1ccccc1O.[Na+]` [Sodium salicylate, reference compound], the “Decrease of the serum calcium level (%)” value (serum calcium level; [11]) was 11.4%, the “Decrease of the serum calcium level (%)” value (serum calcium level; [12]) was 20.3% and the “Decrease of the serum calcium level (%)” value (serum calcium level; absorption aid 7.0% of suppository with 0.7 MRC unit [Aus^1.7]-eel calcitonin per 80 mg) was 29.6%.
